# In patent US20240109972A1, “ANTIBODY AND TAXANE COMBINATION THERAPY” (Genmab A/S, priority 2020, published 2024):
# System: solid malignant tumors
# Test: GEN1046 Phase I dose escalation (NCT03917381), response by RECIST v1.1
# Format: in vivo, human
# Details: for BOR Stable Disease, (percent) / BOR Stable Disease, patients / BOR Complete Response, (percent) / BOR Complete Response, patients / BOR Progressive Disease, (percent) / BOR Progressive Disease, patients / BOR Partial Response, (percent) / BOR Partial Response, patients: 3 Feb. 2020
# Description: The resistance to, failure to respond to and/or relapse from treatment with a binding agent of the invention and/or other therapeutic agent(s) may be determined according to the Response Evaluation Criteria In Solid Tumors; version 1.1 (RECIST Criteria v1.1).
# The “best overall response” is the best response recorded from the start of the treatment until disease progression/recurrence (the smallest measurements recorded since the treatment started will be used as the reference for PD). Subjects with CR or PR are considered to be objective response. Subjects with CR, PR or SD are considered to be in disease control. Subjects with NE are counted as non-responders. […]
# Clinical trial on GCT1046-01 (ClinicalTrials.gov Identifier: NCT03917381) was designed as a two-part trial, including an ongoing dose escalation part and a planned expansion part.
# The trial consists of 2 parts; a First-in-Human (FIH) dose escalation (Phase I) and an expansion (Phase 11a).
# For dose escalation, subject was required to be a man or […] and was required to have measurable disease according to RECIST 1.1.
substance,measurement,setting,value
"GEN1046: PD-L1×4-1BB bispecific antibody: PD-L1-547-FEAL combined with CD137-009-HC7LC2-FEAR (SEQ ID NOs: 1, 5, 21, 19; 8, 12, 22, 20)","BOR Stable Disease, (percent)",140 mg (n = 1),(0)
same,"BOR Stable Disease, patients",140 mg (n = 1),0
same,"CR (Complete Response), patients","200 mg (N 9), Oct. 12, 2020",0
same,"Confirmed CR (Complete Response), patients","200 mg (N 9), Oct. 12, 2020",0
same,"Confirmed Disease Control (PR + PR + SD) Rate, %","200 mg (N 9), Oct. 12, 2020",66.7%
same,"Confirmed Disease Control (PR + PR + SD) Rate, patients","200 mg (N 9), Oct. 12, 2020",6
same,"Confirmed NE (Not Evaluable), % of patients","200 mg (N 9), Oct. 12, 2020",11.1%
same,"Confirmed NE (Not Evaluable), patients","200 mg (N 9), Oct. 12, 2020",1
same,"Confirmed Objective Response (CR + PR) Rate, patients","200 mg (N 9), Oct. 12, 2020",0
same,"Confirmed PD (Progressive Disease), % of patients","200 mg (N 9), Oct. 12, 2020",22.2%
same,"Confirmed PD (Progressive Disease), patients","200 mg (N 9), Oct. 12, 2020",2
same,"Confirmed PR (Partial Response), patients","200 mg (N 9), Oct. 12, 2020",0
same,"Confirmed SD (Stable Disease), % of patients","200 mg (N 9), Oct. 12, 2020",66.7%
same,"Confirmed SD (Stable Disease), patients","200 mg (N 9), Oct. 12, 2020",6
same,"Disease Control (PR + PR + SD) Rate, %","200 mg (N 9), Oct. 12, 2020",66.7%
same,"Disease Control (PR + PR + SD) Rate, patients","200 mg (N 9), Oct. 12, 2020",6
same,"NE (Not Evaluable), % of patients","200 mg (N 9), Oct. 12, 2020",11.1%
same,"NE (Not Evaluable), patients","200 mg (N 9), Oct. 12, 2020",1
same,"Objective Response (CR + PR) Rate, %","200 mg (N 9), Oct. 12, 2020",11.1%
same,"Objective Response (CR + PR) Rate, patients","200 mg (N 9), Oct. 12, 2020",1
same,"PD (Progressive Disease), % of patients","200 mg (N 9), Oct. 12, 2020",22.2%
same,"PD (Progressive Disease), patients","200 mg (N 9), Oct. 12, 2020",2
same,"PR (Partial Response), % of patients","200 mg (N 9), Oct. 12, 2020",11.1%
same,"PR (Partial Response), patients","200 mg (N 9), Oct. 12, 2020",1
same,"BOR Complete Response, (percent)",200 mg (n = 8),(0)
same,"BOR Complete Response, patients",200 mg (n = 8),0
same,"BOR Progressive Disease, (percent)",200 mg (n = 8),(25)
same,"BOR Progressive Disease, patients",200 mg (n = 8),2
same,"BOR Stable Disease, (percent)",200 mg (n = 8),(62.5)
same,"BOR Stable Disease, patients",200 mg (n = 8),5
same,"BOR Partial Response, (percent)","200 mg (n = 8), uPR",(12.5)
same,"BOR Partial Response, patients","200 mg (n = 8), uPR",1^1
same,"CR (Complete Response), patients","400 mg (N 9), Oct. 12, 2020",0
same,"Confirmed CR (Complete Response), patients","400 mg (N 9), Oct. 12, 2020",0
same,"Confirmed Disease Control (PR + PR + SD) Rate, %","400 mg (N 9), Oct. 12, 2020",77.8%
same,"Confirmed Disease Control (PR + PR + SD) Rate, patients","400 mg (N 9), Oct. 12, 2020",7
same,"Confirmed NE (Not Evaluable), patients","400 mg (N 9), Oct. 12, 2020",0
same,"Confirmed Objective Response (CR + PR) Rate, patients","400 mg (N 9), Oct. 12, 2020",0
same,"Confirmed PD (Progressive Disease), % of patients","400 mg (N 9), Oct. 12, 2020",22.2%
same,"Confirmed PD (Progressive Disease), patients","400 mg (N 9), Oct. 12, 2020",2
same,"Confirmed PR (Partial Response), patients","400 mg (N 9), Oct. 12, 2020",0
same,"Confirmed SD (Stable Disease), % of patients","400 mg (N 9), Oct. 12, 2020",77.8%
same,"Confirmed SD (Stable Disease), patients","400 mg (N 9), Oct. 12, 2020",7
same,"Disease Control (PR + PR + SD) Rate, %","400 mg (N 9), Oct. 12, 2020",77.8%
same,"Disease Control (PR + PR + SD) Rate, patients","400 mg (N 9), Oct. 12, 2020",7
same,"NE (Not Evaluable), patients","400 mg (N 9), Oct. 12, 2020",0
same,"Objective Response (CR + PR) Rate, patients","400 mg (N 9), Oct. 12, 2020",0
same,"PD (Progressive Disease), % of patients","400 mg (N 9), Oct. 12, 2020",22.2%
same,"PD (Progressive Disease), patients","400 mg (N 9), Oct. 12, 2020",2
same,"PR (Partial Response), patients","400 mg (N 9), Oct. 12, 2020",0
same,"BOR Complete Response, (percent)",400 mg (n = 6),(0)
same,"BOR Complete Response, patients",400 mg (n = 6),0
same,"BOR Partial Response, (percent)",400 mg (n = 6),(0)
same,"BOR Partial Response, patients",400 mg (n = 6),0
same,"BOR Progressive Disease, (percent)",400 mg (n = 6),(0)
same,"BOR Progressive Disease, patients",400 mg (n = 6),0
same,"BOR Stable Disease, (percent)",400 mg (n = 6),(100)
same,"BOR Stable Disease, patients",400 mg (n = 6),6
same,"CR (Complete Response), patients","800 mg (N 9), Oct. 12, 2020",0
same,"Confirmed CR (Complete Response), patients","800 mg (N 9), Oct. 12, 2020",0
same,"Confirmed Disease Control (PR + PR + SD) Rate, %","800 mg (N 9), Oct. 12, 2020",55.6%
same,"Confirmed Disease Control (PR + PR + SD) Rate, patients","800 mg (N 9), Oct. 12, 2020",5
same,"Confirmed NE (Not Evaluable), % of patients","800 mg (N 9), Oct. 12, 2020",22.2%
same,"Confirmed NE (Not Evaluable), patients","800 mg (N 9), Oct. 12, 2020",2
same,"Confirmed Objective Response (CR + PR) Rate, patients","800 mg (N 9), Oct. 12, 2020",0
same,"Confirmed PD (Progressive Disease), % of patients","800 mg (N 9), Oct. 12, 2020",22.2%
